Test results: patent US20230149358A1, “COMBINATION CANCER THERAPY WITH PENTAAZA MACROCYCLIC RING COMPLEX AND HORMONE THERAPY AGENT” (Galera Labs, LLC, priority 2020, published 2023)
Entries after “also recorded” stand apart in the source; their conditions may differ.

Assays:
[1] = test system: Tam resistant as well as loss of Sirt3 tumor cell lines; experiment: In vitro Tam resistance, Tam resistant and loss of Sirt3 tumor cell lines; format: cell-based; conditions: data not shown
MCF7-HTR cells [2] = experiment: Clonogenic cell survival, hydroxy-Tam-resistant MCF7-HTR cells; format: cell-based, human; conditions: 5 μM GC4419 for 5 days
Description: (§1) Clonogenic cell survival assay. For the clonogenic survival analysis, exponentially growing cells were replated using appropriate dilutions, and clonogenic survival was evaluated after 14 days in regular growth medium. Cells were stained with crystal violet, and colonies of >50 cells were counted and utilized to calculate clonogenic survival^46.
(§2) To test parameters indicative of oxidative stress, a clonogenic assay with hydroxy-Tam and antioxidant treatments was performed. Cells were plated at a density of 50,000 cells per 60-mm dish and treated with 1 μM hydroxy-Tam (Sigma) and 5 μM GC4419 (Galera Therapeutics) for a total of 120 h. This protocol was repeated with a fresh medium change every 24 h for 5 days. On day 6, the cells were trypsinized, counted, and replated in control medium using appropriate dilutions, and clonogenic survival was evaluated.

T47D-HTR cells [3] = experiment: Ki-67 staining, T47D-HTR cells; format: cell-based, human; conditions: 5 μM GC4419 and/or 1 μM 4-hydroxy-Tam for 5 days
Excerpt: (§3) With respect to FIG. 16a, the data from FIG. 7i, where MCF7-HTR cells were stained for Ki-67, as well as DAPI, were counted with ImageJ and quantified for average Ki-67 intensity as shown in the bar graph. With respect to FIGS. 16b and 16c, T47D and T47D-HTR cells were stained for Ki-67 as well as DAPI, and particles in the nucleus were counted with ImageJ and quantified for average Ki-67 intensity as shown in the bar graph. In FIGS. 16d and 16e, MCF7-HTR cells, and in FIGS. 16f and 16g, T47D-HTR cells, were treated with 5 μM GC4419 and/or 1 μM 4-hydroxy-Tam for 5 days, and then stained for Ki-67 as well as DAPI. Quantifications of average Ki-67 intensity are shown in the bar graphs. All experiments were done in triplicate. Error bars represent ±1 SEM. ***p<0.001. Representative images are shown.
(§4) Cells seeded on glass coverslips were fixed in 4% paraformaldehyde and then blocked with 1% BSA and 10% normal goat serum in 1×PBS. Cells were incubated with anti-Ki-67 (c-bioscience) antibody in 1×PBS followed by incubation with goat anti-rabbit IgG conjugated with Alexa Fluor 647 (Invitrogen) in 1×PBS with 5% goat serum. Cells were washed in 1×PBS, mounted, and imaged with a fluorescence microscope. Fluorescence images were captured using a laser scanning confocal microscope (Nikon A1R). The paired images in all the figures were collected at the same gain and offset settings. […]

MCF7-MnSOD^K68Q cells = experiment: Ki-67 staining, MCF7-MnSOD^K68Q cells; format: cell-based, human; conditions: 5 μM GC4419 and/or 1 μM 4-hydroxy-Tam for 5 days
Description: (§5) MCF7-MnSOD^K68Q cells (in FIGS. 17a and 17b) and T47D-MnSOD^K68Q cells (in FIGS. 17c and 17d) were treated with 5 μM GC4419 and/or 1 μM 4-hydroxy-Tam for 5 days, and then stained for Ki-67 as well as DAPI. Quantifications of average Ki-67 intensity are shown in the bar graphs. In FIG. 17e, MCF7 and MCF7-HTR cells were implanted into both hind limbs of nude mice and tumor volumes were measured every 3 days for 6 weeks and the number of tumors that successfully implanted versus the total number of mice infected with MCF7 and MCF7-HTR as well as the average tumor weight and tumor size are shown. Representative images are shown. All experiments were done in triplicate. Error bars represent ±1 SEM. ***p<0.001.
(§6) Cells seeded on glass coverslips were fixed in 4% paraformaldehyde and then blocked with 1% BSA and 10% normal goat serum in 1×PBS. Cells were incubated with anti-Ki-67 (c-bioscience) antibody in 1×PBS followed by incubation with goat anti-rabbit IgG conjugated with Alexa Fluor 647 (Invitrogen) in 1×PBS with 5% goat serum. Cells were washed in 1×PBS, mounted, and imaged with a fluorescence microscope. Fluorescence images were captured using a laser scanning confocal microscope (Nikon A1R). The paired images in all the figures were collected at the same gain and offset settings. Post-collection processing was applied uniformly to all paired images.

[4] = test system: LNCaP-MnSOD^K68Q xenografts; experiment: LNCaP-MnSOD^K68Q hindlimb xenograft growth in nude mice; format: in vivo; conditions: male nude mice; GC4419 10 mg/kg once per week, ENZ 25 mg/kg/day; 46 days
Description: (§7) In FIG. 21(a), clonogenic cell survival experiments were performed in LNCaP-ENZR (left two bars) and LNCaP-MnSOD^K68Q (right two bars) treated with ENZ, with or without GC4419 (20 μM) for 5 days. […] Tumor volumes were measured three times a week for 46 days. For each group n=10. Error bars ±1 SEM. All experiments done in triplicate. **p<0.01.
Thus, it was surmised that restoring SOD activity, using the pentaaza macrocyclic ring complex GC4419, an agent that chemically detoxifies superoxide, would reverse/convert the ENZR to a sensitive phenotype. […] The dose and pharmacokinetics for GC4419 is based on data for murine models^92-93.

LNCaP-MnSOD^K68Q cells = experiment: Clonogenic cell survival, LNCaP-MnSOD^K68Q cells; format: cell-based; conditions: ENZ with GC4419 (20 μM) for 5 days
Description: as §7

rat = rat model; cited from earlier work
MCF7-Cispl-R cells = experiment: Cisplatin sensitivity, MCF7-Cispl-R cells; format: cell-based, human; conditions: MCF7-Cispl-R treated with GC4419
T47D-HTR cells [5] = experiment: Clonogenic cell survival, hydroxy-Tam-resistant T47D-HTR cells; format: cell-based, human; conditions: 5 μM GC4419 for 5 days
Description: as §1, §2

[6] = test system: Sirt3^−/−-MT-SIRT3^DN tumor cells; experiment: Mammary allograft tumor growth (bioluminescence), Sirt3^−/−-MT-SIRT3^DN; format: in vivo; conditions: Sirt3^−/−-MT-SIRT3^DN allografts, nude mice, IP every other day for five weeks
Description: Mice were subsequently injected with luciferin potassium (120 mg/kg) every week and signal intensity will be quantified. Error bars represent one SD from the mean.
These cell lines were subsequently infected with and selected to express either a SIRT3 wild-type (Sirt3^−/−-MT-SIRT3^WT) or deacetylation null (Sirt3^−/−-MT-SIRT3^DN) gene and a lenti-luciferase to assess tumor growth by bioluminescence. Allograft tumor mice were split into four groups: (1) control, untreated Sirt3^−/−-MT-SIRT3^DN; (2) GC4419 treated Sirt3^−/−-MT-SIRT3^DN; (3) control, untreated Sirt3^−/−-MT-SIRT3^WT; and (4) GC4419 treated Sirt3^−/−-MT-SIRT3^WT.

LNCaP-ENZR cells = experiment: Clonogenic cell survival, LNCaP-ENZR cells; format: cell-based; conditions: ENZ with GC4419 (20 μM) for 5 days
Description: as §7
To address whether there is a link between MnSOD-K68-Ac and ENZR, two ENZ sensitive prostate tumor cell lines were used, LNCaP or 22RV1, which were cultured in 5 μM of ENZ for 3 weeks and then continuously grown at 10 μM, using an established method^91 to select for ENZR cells. […] Since K68-Ac alters the surface charge at the MnSOD tetramerization interface, we assessed the oligomerization state of MnSOD in LNCaP-ENZR cells.

MCF7-HTR cells [7] = experiment: Ki-67 staining, MCF7-HTR cells; format: cell-based, human; conditions: 5 μM GC4419 and/or 1 μM 4-hydroxy-Tam for 5 days
Excerpt: as §3, §4

T47D-MnSOD^K68Q cells = experiment: Ki-67 staining, T47D-MnSOD^K68Q cells; format: cell-based, human; conditions: 5 μM GC4419 and/or 1 μM 4-hydroxy-Tam for 5 days
Description: as §5, §6

mice lacking Sirt3 = conditions: IP 2 mg/kg, 30 minutes before IR; cited from earlier work

## [Cl][Mn][Cl].c1cc2nc(c1)CN[C@H]1CCCC[C@@H]1NCCN[C@H]1CCCC[C@@H]1NC2 [GC4419]
[1]
  Tam resistance in vitro: reverses Tam resistance
MCF7-HTR cells [2]
  sensitivity to hydroxy-Tam (clonogenic cell survival): became sensitive to hydroxy-Tam
T47D-HTR cells [3]
  Ki-67 staining: exhibited decreased Ki-67 IHC staining; also recorded: decreased Ki-67 levels
MCF7-MnSOD^K68Q cells
  Ki-67 staining: reversed the increase in Ki-67 IHC staining; also recorded: decreased Ki-67 levels
[4]
  xenograft growth (tumor volume): significant inhibition of xenograft growth
LNCaP-MnSOD^K68Q cells
  ENZ resistance phenotype (clonogenic cell survival): converted to a sensitive phenotype; also recorded: reversed the ENZR
rat
  VEGFr inhibitor-induced pulmonary disease: attenuate VEGFr inhibitor-induced pulmonary disease
MCF7-Cispl-R cells
  cisplatin resistance phenotype: converted the Cispl-R cells to a sensitive phenotype
T47D-HTR cells [5]
  sensitivity to hydroxy-Tam (clonogenic cell survival): became sensitive to hydroxy-Tam
[6]
  allograft tumor growth: significant decrease in tumor growth; also recorded: tumor growth is inhibited
LNCaP-ENZR cells
  tumor cell survival in the presence of ENZ (clonogenic): significant decrease in tumor cell survival in the presence of ENZ; also recorded: reversed the ENZR
MCF7-HTR cells [7]
  Ki-67 staining: exhibited decreased Ki-67 IHC staining
T47D-MnSOD^K68Q cells
  Ki-67 staining: reversed the increase in Ki-67 IHC staining; also recorded: decreased Ki-67 levels
Mice lacking Sirt3
  liver damage: attenuated liver damage
